From patent US11708366B2, “Heteroaryl substituted spiropiperidinyl derivatives and pharmaceutical uses thereof” (Novartis AG, priority 2020, dated 2023)

What was measured:
LTC4S [1] = molecular target: T1, LTC4S (Homo sapiens (Human), UniProt Q16873); assay: Human LTC4S enzymatic assay (HTRF detection of LTC4-Me); assay type: biochemical; conditions: 0.75 nM enzyme, 400 μM GSH, 5 μM LTA4-Me, 15 min pre-incubation; read-out: human LTC4S IC50 (enzymatic assay)
Method: A. Human LTC4S Enzymatic Assay:
LTC4 synthase catalyzes the conversion of Leukotriene A4 (LTA4) to Leukotriene C4 (LTC4) in the presence of reduced glutathione (GSH) as a co-substrate. For compound testing, compounds are delivered as 10 mM stock solutions in 90% DMSO in matrix tubes. From this, a 1:3 dilution dose response series is prepared with a starting concentration of 30 μM to 0.1 nM. For the enzymatic assay 97.5 nL of compound/DMSO solution is transferred to each well and 5 μL enzyme solution (assay buffer: 50 mM bis-tris propane pH 7.3, 250 mM NaCl, 10 mM MgCl2, 0.001% MGN3) is added to the wells. […] The enzyme compound mixture is incubated at room temperature for 15 minutes prior to the addition of 5 μL substrate solution. […] A final substrate concentration of 400 μM GSH and 5 μM LTA4-Me is chosen.
The LTA4-Me is obtained commercially in 2% triethylamine/hexane solvent. As this solvent is incompatible with the HTRF assay it has to be exchanged with DMSO according to following procedure: add 50 μL of 100% DMSO to 50 μL LTA4-Me (3 mM) in a 2 mL Eppendorf tube and mix gently by inverting the tube. The triethylamine/hexane is evaporated under a constant argon flux at room temperature. The DMSO-LTA4-Me (3 mM) is aliquoted and stored at −20° C. for not longer than 4 weeks, as it is not stable in DMSO due to its oxidizing properties.
Upon addition of the substrate, the plate is immediately placed on a shaker for 5 min at room temperature. Immediately after the 5 min incubation 5 μL of H2O2 solution is added to all wells to stop the reaction. The plate contents are mixed before the addition of detection reagents. […] For the detection of the product of the enzymatic reaction LTC4-Me, the Cisbio LTC4-HTRF kit is used as the assay is compatible with the detection of LTC4-Me. 5 μL of diluted LTC4-d2 conjugate (according to manufacturer's protocol) are added to all wells of the assay plate and the contents gently mixed and incubated for 5 minutes at room temperature. […] The percent inhibition for each point of an inhibition curve is calculated after data interpolation using the LTC4-Me standard curve, to convert the HTRF signal to the amount of LTC4-Me produced within the LTC4S catalyzed reaction on each plate. The data is analyzed using parametric curve fitting to determine IC50 values of LTC4S inhibitors.

LTC4S [2] = molecular target: T1, LTC4S; assay: Human whole blood HTRF assay (LTC4 release after calcium ionophore A23187); assay type: cell-based; conditions: calcium ionophore A23187 stimulation, LTC4 by HTRF
[3] = human whole blood diluted 1:3, 4 h incubation, read-out: human whole blood HTRF IC50

Q: `O=C1CCCC2(CCN(c3cc(N4CC(F)(F)C(F)(F)C4)ncn3)CC2)N1c1ccc(Cl)c(F)c1` [Example 44, 1-(4-chloro-3-fluorophenyl)-9-(6-(3,3,4,4-tetrafluoropyrrolidin-1-yl)pyrimidin-4-yl)-1,9-diazaspiro[5.5]undecan-2-one] was tested. Which IC50 (LTC4S [1]) did it give?
A: Its IC50 is 13 nM.

Q: Which IC50 (LTC4S [2]; [3]) does the source give for `Nc1nc(OCC(F)(F)F)cc(N2CCC3(CCCC(=O)N3c3ccc(F)c(F)c3)CC2)n1` [Example 91, 9-(2-amino-6-(2,2,2-trifluoroethoxy)pyrimidin-4-yl)-1-(3,4-difluorophenyl)-1,9-diazaspiro[5.5]undecan-2-one] here?
A: Its IC50 is 3 nM.

Q: Which IC50 (LTC4S [2]; [3]) does the source give for `[2H]C1(Oc2cc(N3CCC4(CCCC(=O)N4c4ccc(F)c(F)c4)CC3)nc(N)n2)CCOCC1` [Example 103, 9-(2-amino-6-((tetrahydro-2H-pyran-4-yl-4-d)oxy)pyrimidin-4-yl)-1-(3,4-difluorophenyl)-1,9-diazaspiro[5.5]undecan-2-one] here?
A: The IC50 was 8 nM.

Q: Which IC50 (LTC4S [2]; [3]) does the source give for `Nc1nc(N2CCC3(CCCC(=O)N3c3ccc(F)c(F)c3)CC2)c(F)c(-n2cccn2)n1` [Example 59, 9-(2-amino-5-fluoro-6-(1H-pyrazol-1-yl)primidin-4-yl)-1-(3,4-difluorophenyl)-1,9-diazaspiro[5.5]undecan-2-one] here?
A: Its IC50 is 640 nM.

Q: `NC(=O)c1nc(N2CCC3(CCCC(=O)N3c3ccc(F)c(F)c3)CC2)cc(-n2cc(C(F)(F)F)cn2)n1` [Example 68] was tested. Which IC50 (LTC4S [2]; [3]) did it give?
A: Its IC50 is 120 nM.

Q: `O=C1CCCC2(CCN(c3cc(N4CC5(CCC5)C4)nn(Cc4ccccc4)c3=O)CC2)N1c1ccc(F)c(F)c1` [Example 10, 9-(2-benzyl-3-oxo-6-(2-azaspiro[3.3]heptan-2-yl)-2,3-dihydropyridazin-4-yl)-1-(3,4-difluorophenyl)-1,9-diazaspiro[5.5]undecan-2-one] was tested. Which IC50 (LTC4S [2]; [3]) did it give?
A: The IC50 was 5 nM.

Q: For `O=C1CCCC2(CCN(c3cc(O[C@@H]4CCOC[C@@H]4F)nc(CO)n3)CC2)N1c1ccc(F)c(F)c1` (racemic) [Example 107, rac-1-(3,4-difluorophenyl)-9-(6-(((3S,4R)-3-fluorotetrahydro-2H-pyran-4-yl)oxy)-2-(hydroxymethyl)pyrimidin-4-yl)-1,9-diazaspiro[5.5]undecan-2-one], which IC50 (LTC4S [2]; [3]) is on record?
A: Its IC50 is 6 nM.

Q: Which IC50 (LTC4S [2]; [3]) does the source give for `O=C1CCCC2(CCN(c3cc(-n4cc(C(F)(F)F)cn4)nc(CO)n3)CC2)N1c1ccc(F)c(F)c1` [Example 66, 1-(3,4-difluorophenyl)-9-(2-(hydroxymethyl)-6-(4-(trifluoromethyl)-1H-pyrazol-1-yl)pyrimidin-4-yl)1,9-diazaspiro[5.5]undecane-2-one] here?
A: Its IC50 is 1 nM.

Q: Which IC50 (LTC4S [2]; [3]) does the source give for `O=C1CCCC2(CCN(c3cc(OC4CCOCC4)nc(CO)n3)CC2)N1c1ccc(F)c(F)c1` [Example 106, 1-(3,4-difluorophenyl)-9-(2-(hydroxymethyl)-6-((tetrahydro-2H-pyran-4-yl)oxy)pyrimidin-4-yl)-1,9-diazaspiro[5.5]undecan-2-one] here?
A: The IC50 was 69 nM.

Q: For `O=C1CCCC2(CCN(c3nc(Cl)cc(O[C@@H]4CCOC4)n3)CC2)N1c1ccc(F)c(F)c1` [Example 72, (R)-9-(4-chloro-6-((tetrahydrofuran-3-yl)oxy)pyrimidin-2-yl)-1-(3,4-difluorophenyl)-1,9-diazaspiro[5.5]undecan-2-one], which IC50 (LTC4S [2]; [3]) is on record?
A: The IC50 was 760 nM.

Q: Which IC50 (LTC4S [2]; [3]) does the source give for `Nc1nc(N2CCC3(CC2)CC(F)CC(=O)N3c2ccc(F)c(F)c2)cc(C(F)(F)C(F)(F)F)n1` (racemic) [Example 117, rac-9-(2-amino-6-(perfluoroethyl)pyrimidin-4-yl)-1-(3,4-difluorophenyl)-4-fluoro-1,9-diazaspiro[5.5]undecan-2-one] here?
A: The IC50 was 18 nM.

Q: For `Nc1nc(N2CCC3(CCCC(=O)N3c3ccc(F)c(F)c3)CC2)nc(-n2cc(F)cn2)n1` [Example 60, 9-(4-amino-6-(4-fluoro-1H-pyrazol-1-yl)-1,3,5-triazin-2-yl)-1-(3,4-difllorophenyl)-1,9-diazaspiro[5.5]undecan-2-one], which IC50 (LTC4S [2]; [3]) is on record?
A: The IC50 was 680 nM.

Q: With `CC(C)(O)c1nc(N2CCC3(CCCC(=O)N3c3ccc(F)c(F)c3)CC2)cc(C(F)(F)F)n1` [Example 80, 1-(3,4-difluorophenyl)-9-(2-(2-hydroxypropan-2-yl)-6-(trifluoromethyl)pyrimidin-4-yl)-1,9-diazaspiro[5.5]undecan-2-one] as the molecule, how does the IC50 (LTC4S [2]; [3]) read?
A: Its IC50 is 24 nM.

Q: For `CC(F)(F)c1cc(N2CCC3(CCCC(=O)N3c3ccc(F)c(F)c3)CC2)nc(N)n1` [Example 120, 9-(2-amino-6-(1,1-difluoroethyl)pyrimidin-4-yl)-1-(3,4-difluorophenyl)-1,9-diazaspiro[5.5]undecan-2-one], which IC50 (LTC4S [2]; [3]) is on record?
A: Its IC50 is 32 nM.

Q: How did the IC50 (LTC4S [2]; [3]) turn out when `CCCOc1ccnc(N2CCC3(CCCC(=O)N3c3ccc(F)c(F)c3)CC2)n1` [Example 85, 1-(3,4-difluorophenyl)-9-(4-propoxypyrimidin-2-yl)-1,9-diazaspiro[5.5]undecan-2-one] was run?
A: Its IC50 is 430 nM.

Q: Which IC50 (LTC4S [2]; [3]) does the source give for `Nc1nc(N2CCC3(CCCC(=O)N3c3ccc(F)c(F)c3)CC2)cc(-n2cc(C(F)(F)F)cn2)n1` [Example 64, 9-(2-amino-6-(4-(trifluoromethyl)-1H-pyrazol-1-yl)pyrimidin-4-yl)-1-(3,4-difluorophenyl)-1,9-diazaspiro[5.5]undecane-2-one] here?
A: The IC50 was 2 nM.

Q: Which IC50 (LTC4S [2]; human whole blood HTRF IC50, human whole blood diluted 1:3, 4 h incubation) does the source give for `O=C1CCCC2(CCN(c3cc(=O)n(Cc4ccccc4)nc3OC3CCOCC3)CC2)N1c1ccc(F)c(F)c1` [Example 15b, 9-(1-benzyl-6-oxo-3-((tetrahydro-2H-pyran-4-yl)oxy)-1,6-dihydropyridazin-4-yl)-1-(3,4-difluorophenyl)-1,9-diazaspiro[5.5]undecan-2-one] here?
A: Its IC50 is 180 nM.

Q: `NC1(C(F)(F)F)CCN(c2ccnc(N3CCC4(CCCC(=O)N4c4ccc(F)c(F)c4)CC3)n2)CC1` [Example 39, 9-(4-(4-amino-4-(trifluoromethyl)piperidin-1-yl)pyrimidin-2-yl)-1-(3,4-difluorophenyl)-1,9-diazaspiro[5.5]undecan-2-one] was tested. Which IC50 (LTC4S [2]; [3]) did it give?
A: The IC50 was 4 nM.

Q: How did the IC50 (LTC4S [2]; [3]) turn out when `O=C1CCCC2(CCN(c3cc(-n4cc(C(F)(F)F)cn4)ncn3)CC2)N1c1ccc(F)c(F)c1` [Example 47, 1-(3,4-difluorophenyl)-9-(6-(4-(trifluoromethyl)-1H-pyrazol-1-yl)pyrimidin-4-yl)-1,9-diazaspiro[5.5]undecan-2-one] was run?
A: The IC50 was 7 nM.

Q: How did the IC50 (LTC4S [2]; [3]) turn out when `Nc1cc(N2CCC3(CCCC(=O)N3c3ccc(F)c(F)c3)CC2)nc(-c2ccccn2)n1` [Example 63, 9-(6-amino-2-(pyridin-2-yl)pyrimidin-4-yl)-1-(3,4-difluorophenyl)-1,9-diazaspiro[5.5]undecan-2-one] was run?
A: Its IC50 is 430 nM.

Q: For `O=C1CCCC2(CCN(c3cc(-n4cc(Cl)cn4)ncn3)CC2)N1c1ccc(F)c(F)c1` [Example 55, 9-(6-(4-chloro-1H-pyrazol-1-yl)pyrimidin-4-yl)-1-(3,4-difluorophenyl)-1,9-diazaspiro[5.5]undecan-2-one], which IC50 (LTC4S [2]; [3]) is on record?
A: Its IC50 is 6 nM.

Q: For `Cn1cc(C2=CCC(F)(F)CC2)nc(N2CCC3(CCCC(=O)N3c3ccc(F)c(F)c3)CC2)c1=O` [Example 19, 9-(6-(4,4-difluorocyclohex-1-en-1-yl)-4-methyl-3-oxo-3,4-dihydropyrazin-2-yl)-1-(3,4-difluorophenyl)-1,9-diazaspiro[5.5]undecane-2-one], which IC50 (LTC4S [2]; [3]) is on record?
A: Its IC50 is 3 nM.

Q: With `N#Cc1nc(N2CCC3(CCCC(=O)N3c3ccc(F)c(F)c3)CC2)cc(-n2cccn2)n1` [Example 49, 4-(1-(3,4-difluorophenyl)-2-oxo-1,9-diazaspiro[5.5]undecan-9-yl)-6-(1H-pyrazol-1-yl)pyrimidine-2-carbonitrile] as the molecule, how does the IC50 (LTC4S [2]; [3]) read?
A: Its IC50 is 88 nM.

Q: `COc1nc(N2CCC3(CCCC(=O)N3c3ccc(F)c(F)c3)CC2)cc(-n2cccn2)n1` [Example 50, 1-(3,4-difluorophenyl)-9-(2-methoxy-6-(1H-pyrazol-1-yl)pyrimidin-4-yl)-1,9-diazaspiro[5.5]undecan-2-one] was tested. Which IC50 (LTC4S [2]; [3]) did it give?
A: The IC50 was 45 nM.

Q: With `CC(C)(O)c1nc(N2CCC3(CCCC(=O)N3c3ccc(F)c(F)c3)CC2)cc(-n2cc(C(F)(F)F)cn2)n1` [Example 65, 1-(3,4-difluorophenyl)-9-(2-(2-hydroxypropan-2-yl)-6-(4-(trifluoromethyl)-1H-pyrazol-1-yl)pyrimidin-4-yl)1,9-diazaspiro[5.5]undecane-2-one] as the molecule, how does the IC50 (LTC4S [2]; [3]) read?
A: The IC50 was 1 nM.

Q: How did the IC50 (LTC4S [2]; [3]) turn out when `Nc1nc(O[C@H]2CCOC[C@@H]2F)cc(N2CCC3(CCCC(=O)N3c3ccc(F)c(F)c3)CC2)n1` (racemic) [Example 99, rac-9-(2-amino-6-(((3S,4S)-3-fluorotetrahydro-2H-pyran-4-yl)oxy)pyrimidin-4-yl)-1-(3,4-difluorophenyl)-1,9-diazaspiro[5.5]undecan-2-one] was run?
A: Its IC50 is 4 nM.
